Entries after “also recorded” stand apart in the source; their conditions may differ. Ends that are not written are not given here.

T1 sequence (P01903 26-254): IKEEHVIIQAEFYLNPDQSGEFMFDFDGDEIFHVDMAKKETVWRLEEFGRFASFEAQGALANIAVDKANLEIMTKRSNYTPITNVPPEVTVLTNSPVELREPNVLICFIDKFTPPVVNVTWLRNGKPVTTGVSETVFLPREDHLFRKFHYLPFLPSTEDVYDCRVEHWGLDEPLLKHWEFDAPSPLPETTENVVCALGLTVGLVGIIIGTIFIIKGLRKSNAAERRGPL
T1 sequence (P01911 30-266 with the stated changes): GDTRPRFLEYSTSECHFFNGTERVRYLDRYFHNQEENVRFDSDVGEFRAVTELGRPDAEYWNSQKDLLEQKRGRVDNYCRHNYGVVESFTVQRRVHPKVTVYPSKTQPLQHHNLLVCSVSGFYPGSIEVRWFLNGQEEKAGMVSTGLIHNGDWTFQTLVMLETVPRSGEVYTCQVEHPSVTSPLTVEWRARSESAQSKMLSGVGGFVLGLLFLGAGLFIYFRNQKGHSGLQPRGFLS

The test concerns the target T1, MHC II molecules present on dendritic cells (DC) (Homo sapiens, UniProt P01903+P01911, A100K/A102G/A103R/F55Y/I96L/K41T/P40S/Q125H/Q178H/Q39Y/R42S/S66N/T106N/T262R/W38E/Y61H).
T1 construct: from tissue; host or cells: CD11c+ dendritic cells from spleens of DR3tg mice (genomic HLA-DRA and DRB1*0301 transgenes, no mouse MHC class II)
The test can be described thus: In vivo presentation experiment, DR3tg mice. Particulars: 100 μg peptide s.c., CD11c+ cells harvested after 2 hours, co-culture 48 hours. The source says:
FIG. 14: In vivo presentation protocol. Mice are immunized with peptide/CFA and a T cell line is established. For this, ten days after immunization the LN and spleens are harvested and cultured with different concentrations of peptide; 2×10^6 cells/ml APC+1×10^6 cells/ml CD4^+ cells per well. At day 7 the cells are re-stimulated with fresh APC and the same concentrations of peptide. After 14 to 21 days, CD4^+ cells are isolated from these cultures by magnetic bead isolation. These CD4^+ cells are co-cultured with CD11c^+ (dendritic) cells isolated by magnetic bead isolation from spleens of mice s.c. injected with peptide 2 hours before. Control mice receive a s.c. injection of PBS. After 48 hours, supernatant is collected and cytokine response (IFN-γ) is measured. LN, lymph nodes; APC, Antigen presenting cell; s.c. subcutaneous.
FIG. 15: In vivo presentation of HIP-115 nested peptides in DR3 mice. DR3 mice were immunized with HIP-115/CFA and a T cell line was established. For this, ten days after immunization the LN and spleens were harvested and cultured with different concentrations of peptide (0.1-1-2.5 and 5 μg/ml); 2×10^6 cells/ml APC+1×10^6 cells/ml CD4^+ cells per well. At day 7 the cells were re-stimulated with fresh APC and the same concentrations of peptide. After 14 days, CD4^+ cells were isolated from these cultures by magnetic bead isolation. These CD4^+ cells were co-cultured with CD11c (dendritic) cells isolated by magnetic bead isolation from spleens of DR3 mice s.c. injected with peptides HIP-115NE3, HIP-115NE3-KKK or PBS 2 hours before. After 48 hours, supernatant was collected and IFN-γ production was measured by ELISA. Data are presented as the mean IFN-γ concentration±SEM (One-way ANOVA with Dunn's multiple comparison, * p<0.05, ** p<0.01). LN, lymph nodes; APC, Antigen presenting cell; s.c. subcutaneous.
FIG. 16: In vivo presentation of HIP-24 nested peptides in DR3 mice. DR3 mice were immunized with HIP-241125+HIP-24DG/CFA and a T cell line was established. For this, ten days after immunization the LN and spleens were harvested and cultured with different concentrations of peptide (0.3-1.2-3 and 6 μg/ml); 2×10^6 cells/ml APC+1×10^6 cells/ml CD4^+ cells per well. At day 7 the cells were re-stimulated with fresh APC and the same concentrations of peptide. After 14 days, CD4^+ cells were isolated from these cultures by magnetic bead isolation. […] After 48 hours, supernatant was collected and IFN-γ production was measured by ELISA. […]
FIG. 18: In vivo presentation of HIP-17GN nested peptides in DR3 mice. […] After 48 hours, supernatant was collected and IFN-γ production was measured by ELISA. […]
Regarding “KKKVIFKKISRDKSVTIYLGKKK-NH2 [HIP-115NE3-KKK]”, the “picked up and presented by MHC II on dendritic cells to peptide-specific T cells (IFN-γ production)” value was “bound to the MHC II on DC in situ and presented to peptide-specific T cells”. In the case of “LPLLANNRERRGIA-NH2 [HIP-24HM3, LPLLANNRERRGIA]” it was “presented by DC to T cells”; in that of KKKLTFRRDLYFSRVQVYKKK-NH2 [HIP-17J-KKK], “presented by DC to T cells; also recorded: A certain degree of activation”.

On to “VIFKKISRDKSVTIYLG-NH2 [HIP-115NE3, VIFKKISRDKSVTIYLG]”, for which the “picked up and presented by MHC II on dendritic cells to peptide-specific T cells (IFN-γ production)” value is listed as “not able to cause this activation”.

The values are drawn from patent US11542316B2, “S-Arrestin peptides and therapeutic uses thereof” (APITOPE INTERNATIONAL NV, priority 2017, dated 2023).
